Columns and labels:
Assay type in all cases: in vivo
[1] = system: Alopecurus myosuroides (ALOMY); experiment: Example B pre-emergence herbicidal activity, glasshouse pot test; conditions: 312 h, rate 250 g/ha, evaluated after 13 days, read-out: Pre-emergence activity ALOMY (100=total damage to plant; 0=no damage to plant)
Procedure: (§1) Seeds of a variety of test species were sown in standard soil in pots. After cultivation for one day (pre-emergence) or after 8 days cultivation (post-emergence) under controlled conditions in a glasshouse (at 24/16° C., day/night; 14 hours light; 65% humidity), the plants were sprayed with an aqueous spray solution derived from the formulation of the technical active ingredient in acetone/water (50:50) solution containing 0.5% Tween 20 (polyoxyethelyene sorbitan monolaurate, CAS RN 9005-64-5). The test plants were then grown in a glasshouse under controlled conditions in a glasshouse (at 24/16° C., day/night; 14 hours light; 65% humidity) and watered twice daily. After 13 days for pre and post-emergence, the test was evaluated (100=total damage to plant; 0=no damage to plant).
(§2) Alopecurus myosuroides (ALOMY), Avena fatua (AVEFA), Setaria faberi (SETFA), Echinochloa crus-galli (ECHCG), Solanum nigrum (SOLNI) and Amaranthus retroflexus (AMARE)

[2] = system: Amaranthus retroflexus (AMARE); experiment: as above; conditions: 312 h, rate 250 g/ha, evaluated after 13 days, read-out: Pre-emergence activity AMARE (100=total damage to plant; 0=no damage to plant)
Procedure: as §1, §2

[3] = system: Avena fatua (AVEFA); experiment: as above; conditions: 312 h, rate 250 g/ha, evaluated after 13 days, read-out: Pre-emergence activity AVEFA (100=total damage to plant; 0=no damage to plant)
Procedure: as §1, §2

[4] = system: Echinochloa crus-galli (ECHCG); experiment: as above; conditions: 312 h, rate 250 g/ha, evaluated after 13 days, read-out: Pre-emergence activity ECHCG (100=total damage to plant; 0=no damage to plant)
Procedure: as §1, §2

[5] = system: Setaria faberi (SETFA); experiment: as above; conditions: 312 h, rate 250 g/ha, evaluated after 13 days, read-out: Pre-emergence activity SETFA (100=total damage to plant; 0=no damage to plant)
Procedure: as §1, §2

[6] = system: Alopecurus myosuroides (ALOMY); experiment: Example B post-emergence herbicidal activity, glasshouse pot test; conditions: 312 h, rate 250 g/ha, evaluated after 13 days, read-out: Post-emergence activity ALOMY (100=total damage to plant; 0=no damage to plant)
Procedure: as §1, §2

[7] = system: Amaranthus retroflexus (AMARE); experiment: as above; conditions: 312 h, rate 250 g/ha, evaluated after 13 days, read-out: Post-emergence activity AMARE (100=total damage to plant; 0=no damage to plant)
Procedure: as §1, §2

[8] = system: Avena fatua (AVEFA); experiment: as above; conditions: 312 h, rate 250 g/ha, evaluated after 13 days, read-out: Post-emergence activity AVEFA (100=total damage to plant; 0=no damage to plant)
Procedure: as §1, §2

[9] = system: Echinochloa crus-galli (ECHCG); experiment: as above; conditions: 312 h, rate 250 g/ha, evaluated after 13 days, read-out: Post-emergence activity ECHCG (100=total damage to plant; 0=no damage to plant)
Procedure: as §1, §2

[10] = system: Setaria faberi (SETFA); experiment: as above; conditions: 312 h, rate 250 g/ha, evaluated after 13 days, read-out: Post-emergence activity SETFA (100=total damage to plant; 0=no damage to plant)
Procedure: as §1, §2

Molecule `CCc1ccc(-c2cc(Cl)c(Cl)c(Cl)c2)cc1C1=C(O)C(C)(C)OC(C)(C)C1=O` [Compound A-139] has a pest or weed control at 250 g/ha [1] of 0%, a pest or weed control at 250 g/ha [2] of 0% and a pest or weed control at 250 g/ha [3] of 0%. The pest or weed control at 250 g/ha [4] was 30%, the pest or weed control at 250 g/ha [5] was 70% and the pest or weed control at 250 g/ha [6] was 30%. For the same molecule, the pest or weed control at 250 g/ha [7] was 50%, the pest or weed control at 250 g/ha [8] was 50% and the pest or weed control at 250 g/ha [9] was 100%. For the same molecule, the pest or weed control at 250 g/ha [10] was 80%.

Molecule `CCc1ccc(-c2ccc(Cl)cc2C#N)cc1C1=C(O)C(C)(C)OC(C)(C)C1=O` [Compound A-100] has a pest or weed control at 250 g/ha [1] of 20%, a pest or weed control at 250 g/ha [2] of 60% and a pest or weed control at 250 g/ha [3] of 90%. It also gave a pest or weed control at 250 g/ha [4] of 80%, a pest or weed control at 250 g/ha [5] of 100% and a pest or weed control at 250 g/ha [6] of 90%. The pest or weed control at 250 g/ha [7] was 0%, the pest or weed control at 250 g/ha [8] was 90% and the pest or weed control at 250 g/ha [9] was 100%. For the same molecule, the pest or weed control at 250 g/ha [10] was 100%.

`CCc1ccc(-c2ccc(Cl)cc2)cc1C1=C(O)[C@@]2(CC)CC[C@H](O2)C1=O` [Compound A-79] was tested, and the pest or weed control at 250 g/ha [1] was 40%, the pest or weed control at 250 g/ha [2] was 0% and the pest or weed control at 250 g/ha [3] was 40%. For the same molecule, the pest or weed control at 250 g/ha [4] was 80%, the pest or weed control at 250 g/ha [5] was 100% and the pest or weed control at 250 g/ha [6] was 80%. It also gave a pest or weed control at 250 g/ha [7] of 0%, a pest or weed control at 250 g/ha [8] of 50% and a pest or weed control at 250 g/ha [9] of 100%. The pest or weed control at 250 g/ha [10] was 100%.

`CCc1ccc(-c2ccc(Cl)c(F)c2F)cc1C1=C(O)C(C)(C)OC(C)(C)C1=O` [Compound A-153] showed a pest or weed control at 250 g/ha [1] of 60%, a pest or weed control at 250 g/ha [2] of 0% and a pest or weed control at 250 g/ha [3] of 50%. For the same molecule, the pest or weed control at 250 g/ha [4] was 100%, the pest or weed control at 250 g/ha [5] was 100% and the pest or weed control at 250 g/ha [6] was 100%. The pest or weed control at 250 g/ha [7] was 30%, the pest or weed control at 250 g/ha [8] was 100% and the pest or weed control at 250 g/ha [9] was 100%. For the same molecule, the pest or weed control at 250 g/ha [10] was 100%.

For `Cc1cc(C)c(-c2ccc(Cl)cc2F)c(C)c1C1=C(O)C(C)(C)OC(C)(C)C1=O` [Compound A-102], the pest or weed control at 250 g/ha [1] was 30%, the pest or weed control at 250 g/ha [2] was 0% and the pest or weed control at 250 g/ha [3] was 0%. It also gave a pest or weed control at 250 g/ha [4] of 90%, a pest or weed control at 250 g/ha [5] of 90% and a pest or weed control at 250 g/ha [6] of 20%. The pest or weed control at 250 g/ha [7] was 0%, the pest or weed control at 250 g/ha [8] was 0% and the pest or weed control at 250 g/ha [9] was 70%. It also gave a pest or weed control at 250 g/ha [10] of 30%.

For `CCc1ccc(-c2ccc(C(F)F)cc2)cc1C1=C(O)C(C)(C)OC(C)(C)C1=O` [Compound A-147], the pest or weed control at 250 g/ha [1] was 100%, the pest or weed control at 250 g/ha [2] was 0% and the pest or weed control at 250 g/ha [3] was 60%. For the same molecule, the pest or weed control at 250 g/ha [4] was 100%, the pest or weed control at 250 g/ha [5] was 70% and the pest or weed control at 250 g/ha [6] was 100%. It also gave a pest or weed control at 250 g/ha [7] of 0%, a pest or weed control at 250 g/ha [8] of 90% and a pest or weed control at 250 g/ha [9] of 100%. For the same molecule, the pest or weed control at 250 g/ha [10] was 70%.

`Cc1ccc(-c2ccc(Cl)cc2Cl)cc1C1=C(O)C(C)(C)S(=O)(=O)C(C)(C)C1=O` [Compound C-8] showed a pest or weed control at 250 g/ha [1] of 0%, a pest or weed control at 250 g/ha [2] of 0% and a pest or weed control at 250 g/ha [3] of 0%. For the same molecule, the pest or weed control at 250 g/ha [4] was 0%, the pest or weed control at 250 g/ha [5] was 0% and the pest or weed control at 250 g/ha [6] was 20%. For the same molecule, the pest or weed control at 250 g/ha [7] was 0%, the pest or weed control at 250 g/ha [8] was 0% and the pest or weed control at 250 g/ha [9] was 60%. For the same molecule, the pest or weed control at 250 g/ha [10] was 40%.

`CC1(C)OC(C)(C)C(O)=C(c2cc(-c3ccc(Cl)cc3F)ccc2Cl)C1=O` [Compound A-141] showed a pest or weed control at 250 g/ha [1] of 20%, a pest or weed control at 250 g/ha [2] of 0% and a pest or weed control at 250 g/ha [3] of 30%. The pest or weed control at 250 g/ha [4] was 100%, the pest or weed control at 250 g/ha [5] was 80% and the pest or weed control at 250 g/ha [6] was 50%. The pest or weed control at 250 g/ha [7] was 0%, the pest or weed control at 250 g/ha [8] was 50% and the pest or weed control at 250 g/ha [9] was 100%. The pest or weed control at 250 g/ha [10] was 80%.
